pIC50: −log10 of the molar value.
System: PDC KRAS tumor spheroids with HUVEC/MSC, viability
Assay: Anticancer human tumor 349418-098-R-PDC patient-derived lung adenocarcinoma cell line growth inhibition [KRAS2]
Conditions: for viability, T/C: stronger effect = lower value; for pIC50: curve of first compound; active = viability on the fitted dose curve at most 10% of control; inactive = the rest
From the text: Multicellular complex tumor spheroid response to RAS pathway inhibitors in combination with a targeted agents in patient-derived cell lines with oncogenic KRAS variants from multiple cancer types
A high-throughput screen of multi-cell type tumor spheroids was designed to identify active combinations of targeted small molecules and KRAS pathway inhibitors. Complex spheroids include a stromal component modeled by human endothelial cells (HUVEC) and fibroblasts modeled by human mesenchymal stem cells (MSCs). The concentration ranges selected for each drug and investigational agent were based upon clinically achievable concentrations if the clinical Cmax of the agent was known.
Compounds. The drugs and investigational agents: BI-3406 (NSC825286), BAY-293 (NSC824723), batoprotafib (TNO155; NSC825523), sotorasib (AMG 510; NSC818433), MRTX1257 (NSC819558), elimusertib (BAY 1895344; NSC800525), molibresib (GSK525762; NSC774829), temuterkib (LY3214996; NSC803410), venetoclax (NSC766270), alisertib (NSC759677), olaparib (NSC753686), talazoparib (NSC767125), erdafitinib (NSC781556), ipatasertib (NSC767898), cabozantinib (NSC761068), nintedanib (NSC756659), abemaciclib (NSC768073), docetaxel (NSC628503), trametinib (NSC758246), and sapanisertib (NSC764658) were obtained from the National Cancer Institute (NCI) Developmental Therapeutics Program Chemical Repository. The FDA-approved anticancer drug set is available from the Developmental Therapeutics Program. […] The stock solutions were prepared in dimethyl sulfoxide (DMSO, Sigma-Aldrich, St. Louis, MO, cat. D2650) at 800-fold the tested concentration and stored at -70 degrees C prior to their use. All drugs and investigational agents were tested over a range starting from a high concentration at or near the clinical Cmax and decreasing in half-log increments. If the clinical Cmax for an agent had not been determined, the highest concentration tested was 10 microM.
Cell Culture. All cells were maintained in an incubator at 37 degrees C and 5% CO2 with 95% humidity. The PDC lines were cultured according to standard operating procedures established by the NCI PDMR (https://pdmr.cancer.gov/sops/default.htm). Briefly, all PDCs were thawed and cultured in Matrigel-coated flasks prepared with a working solution of 1X Ham's F-12 nutrient mix, without supplementation (Invitrogen, Waltham, MA, cat. 11765054), 100 U/mL penicillin-streptomycin (Invitrogen, cat. 15140122), and 2.5% Matrigel (Corning Inc., Corning, NY, cat. 354248) for the first three passages. All PDCs were cultured in complete DMEM/F-12 media containing advanced DMEM/F-12 (Invitrogen, cat. 12634028), 4.9% defined fetal bovine serum, heat inactivated (HyClone Laboratories Inc., Logan, UT, cat. SH30070.03HI), 389 ng/mL hydrocortisone (Sigma-Aldrich, cat. H4001), 9.7 ng/mL human EGF recombinant protein (Invitrogen, cat. PHG0313), 23.4 microg/mL adenine (Sigma-Aldrich, cat. A2786), 97.3 U/mL penicillin-streptomycin (Invitrogen, cat. 15140122), 1.9 mM L-glutamine (Invitrogen, cat. 25030081), and 9.7 microM Y-27632 dihydrochloride (Tocris Bioscience, Bristol, United Kingdom, cat. 1254). The PDCs were cultured in complete DMEM/F12 media without 9.7 microM Y-27632 dihydrochloride for at least two passages prior to the screen. The established cell line HOP-62 was cultured in RPMI 1640 medium, HEPES (Invitrogen, cat. 22400105) with 10% defined fetal bovine serum (HyClone Laboratories Inc., cat. SH30070.03) and 2 mM L-glutamine (Invitrogen, cat. 25030081). The pooled donor HUVEC were cultured in endothelial cell growth medium 2 (PromoCell, Heidelberg, Germany, cat. C-22011) and the hMSC were cultured in mesenchymal stem cell growth medium 2 (PromoCell, cat. C-28009). For all experiments, HUVEC and hMSC were used at passages </=5, while the malignant cell lines were used at passages </=15. […]

[1] = second compound 0.1 µM, first compound 0.0316 µM
[2] = second compound 0.1 µM, first compound 0.1 µM
[3] = second compound 0.316 µM, first compound 0.0316 µM
[4] = second compound 0.316 µM, first compound 0.1 µM
[5] = second compound 1 µM, first compound 0.0316 µM
[6] = second compound 1 µM, first compound 0.1 µM
[7] = second compound 3.16 µM, first compound 0.0316 µM
[8] = second compound 3.16 µM, first compound 0.1 µM
[9] = second compound 10 µM, first compound 0.0316 µM
[10] = second compound 10 µM, first compound 0.1 µM
[11] = second compound 0.1 µM, first compound 0.316 µM
[12] = second compound 0.1 µM, first compound 1 µM
[13] = second compound 0.1 µM, first compound 3.16 µM
[14] = second compound 0.1 µM, first compound 10 µM
[15] = second compound 0.316 µM, first compound 0.316 µM
[16] = second compound 0.316 µM, first compound 1 µM
[17] = second compound 0.316 µM, first compound 3.16 µM
[18] = second compound 0.316 µM, first compound 10 µM
[19] = second compound 1 µM, first compound 0.316 µM
[20] = second compound 1 µM, first compound 1 µM
[21] = second compound 1 µM, first compound 3.16 µM
[22] = second compound 1 µM, first compound 10 µM
[23] = second compound 3.16 µM, first compound 0.316 µM
[24] = second compound 3.16 µM, first compound 1 µM
[25] = second compound 3.16 µM, first compound 3.16 µM
[26] = second compound 3.16 µM, first compound 10 µM
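Note: spheroids exposed to compounds for seven days before readout.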

Cn1nccc1Nc1nccc(-c2cc3c(s2)C(C)(C)N(CCN2CCOCC2)C3=O)n1
52.2 nM [middle of 5 runs]: IC50 (curve of compound)
inactive: viability, T/C (compound 0.0316 µM) 56.4% [middle of 5 runs] | viability, T/C (compound 0.1 µM) 40.2% [middle of 5 runs] | viability, T/C (compound 0.316 µM) 21.2% [middle of 5 runs] | viability, T/C (compound 1 µM) 14.3% [middle of 5 runs]
active: viability, T/C (compound 3.16 µM) 7.8% [middle of 5 runs] | viability, T/C (compound 10 µM) 5.9% [middle of 5 runs]

CC(C)n1nc(-c2ccc3oc(N)nc3c2)c2c(N)ncnc21 + CNCc1ccccc1-c1csc(C(C)Nc2nc(C)nc3cc(OC)c(OC)cc23)c1
active: viability, T/C [1] 8.36% | viability, T/C [2] 7.55% | viability, T/C (second compound 0.316 µM, first compound 0.01 µM) 8.02% | viability, T/C [3] 7.42% | viability, T/C [4] 6.91% | viability, T/C (second compound 1 µM, first compound 0.00316 µM) 9.14% | viability, T/C (second compound 1 µM, first compound 0.01 µM) 7.12% | viability, T/C [5] 5.59% | viability, T/C [6] 6.98% | viability, T/C (second compound 3.16 µM, first compound 0.000316 µM) 0.08% | viability, T/C (second compound 3.16 µM, first compound 0.001 µM) 0.18% | viability, T/C (second compound 3.16 µM, first compound 0.00316 µM) 0.03% | viability, T/C (second compound 3.16 µM, first compound 0.01 µM) 0.06% | viability, T/C [7] 0.06% | viability, T/C [8] 0.13% | viability, T/C (second compound 10 µM, first compound 0.000316 µM) 0.08% | viability, T/C (second compound 10 µM, first compound 0.001 µM) 0.08% | viability, T/C (second compound 10 µM, first compound 0.00316 µM) 0.07% | viability, T/C (second compound 10 µM, first compound 0.01 µM) 0.09% | viability, T/C [9] 0.09% | viability, T/C [10] 0.15%
9.25: pIC50 (second compound 1 µM)
inactive: viability, T/C (second compound 0.1 µM, first compound 0.000316 µM) 103% | viability, T/C (second compound 0.1 µM, first compound 0.001 µM) 49.1% | viability, T/C (second compound 0.1 µM, first compound 0.00316 µM) 20.9% | viability, T/C (second compound 0.1 µM, first compound 0.01 µM) 8.09% | viability, T/C (second compound 0.316 µM, first compound 0.000316 µM) 106% | viability, T/C (second compound 0.316 µM, first compound 0.001 µM) 43.2% | viability, T/C (second compound 0.316 µM, first compound 0.00316 µM) 13.3% | viability, T/C (second compound 1 µM, first compound 0.000316 µM) 73.1% | viability, T/C (second compound 1 µM, first compound 0.001 µM) 26.3%
9.05: pIC50 (second compound 0.316 µM)
9.01: pIC50 (second compound 0.1 µM)
> 9.50: pIC50 (second compound 3.16 µM) | pIC50 (second compound 10 µM)

CC1(C)CCC(CN2CCN(c3ccc(C(=O)NS(=O)(=O)c4ccc(NCC5CCOCC5)c([N+](=O)[O-])c4)c(Oc4cnc5[nH]ccc5c4)c3)CC2)=C(c2ccc(Cl)cc2)C1 + C=CC(=O)N1CCN(c2nc(OCC3CCCN3C)nc3c2CCN(c2cccc4cccc(C)c24)C3)CC1CC#N
active: viability, T/C (second compound 0.0316 µM, first compound 10 µM) 4.29% | viability, T/C [14] 4.13% | viability, T/C [18] 3.73% | viability, T/C [21] 4.26% | viability, T/C [22] 1.75% | viability, T/C [7] 0.15% | viability, T/C [8] 0.15% | viability, T/C [23] 0.14% | viability, T/C [24] 0.2% | viability, T/C [25] 0.09% | viability, T/C [26] 0.11%
5.82: pIC50 (second compound 0.316 µM)
5.87: pIC50 (second compound 0.1 µM)
5.93: pIC50 (second compound 1 µM)
5.77: pIC50 (second compound 0.0316 µM)
inactive: viability, T/C (second compound 0.0316 µM, first compound 0.0316 µM) 97.5% | viability, T/C (second compound 0.0316 µM, first compound 0.1 µM) 100% | viability, T/C (second compound 0.0316 µM, first compound 0.316 µM) 89.4% | viability, T/C (second compound 0.0316 µM, first compound 1 µM) 80% | viability, T/C (second compound 0.0316 µM, first compound 3.16 µM) 13.8% | viability, T/C [1] 96.2% | viability, T/C [2] 94.8% | viability, T/C [11] 76.5% | viability, T/C [12] 66.2% | viability, T/C [13] 13.6% | viability, T/C [3] 92.6% | viability, T/C [4] 87.5% | viability, T/C [15] 77.1% | viability, T/C [16] 72.1% | viability, T/C [17] 10.9% | viability, T/C [5] 76.8% | viability, T/C [6] 75% | viability, T/C [19] 68.2% | viability, T/C [20] 57.7%
> 7.50: pIC50 (second compound 3.16 µM)

COc1cc(Nc2ncc3c(n2)-c2ccc(Cl)cc2C(c2c(F)cccc2OC)=NC3)ccc1C(=O)O + CNCc1ccccc1-c1csc(C(C)Nc2nc(C)nc3cc(OC)c(OC)cc23)c1
inactive: viability, T/C [1] 51.9% | viability, T/C [2] 26.1% | viability, T/C [11] 38.8% | viability, T/C [12] 36.7% | viability, T/C [13] 32.7% | viability, T/C [14] 24.8% | viability, T/C [3] 51.1% | viability, T/C [4] 26.1% | viability, T/C [15] 35.7% | viability, T/C [16] 32.2% | viability, T/C [17] 32.8% | viability, T/C [18] 28.8% | viability, T/C [5] 40.2% | viability, T/C [6] 23.6% | viability, T/C [19] 32.4% | viability, T/C [20] 26.8% | viability, T/C [21] 25.9% | viability, T/C [22] 26.7%
active: viability, T/C [7] 0.15% | viability, T/C [8] 0.11% | viability, T/C [23] 0.14% | viability, T/C [24] 0.14% | viability, T/C [25] 0.08% | viability, T/C [26] 0.29% | viability, T/C [9] 0.08% | viability, T/C [10] 0.07% | viability, T/C (second compound 10 µM, first compound 0.316 µM) 0.08% | viability, T/C (second compound 10 µM, first compound 1 µM) 0.08% | viability, T/C (second compound 10 µM, first compound 3.16 µM) 0.08% | viability, T/C (second compound 10 µM, first compound 10 µM) 0.13%
> 7.50: pIC50 (second compound 0.1 µM) | pIC50 (second compound 0.316 µM) | pIC50 (second compound 1 µM) | pIC50 (second compound 3.16 µM) | pIC50 (second compound 10 µM)
